Results from paper PMC6156138, “Combination of a Latency-Reversing Agent With a Smac Mimetic Minimizes Secondary HIV-1 Infection in vitro” (Frontiers in Microbiology, 2018).
Like-named read-outs stand apart in the source and are kept apart here.

Columns and labels:
Type in all cases: cell-based
[1] = tested on: latent HIV-1-infected ACH-2 cells; assay: HIV reactivation from latent cells: supernatant p24 antigen; settings: ACH-2 cells; for viral production (supernatant p24 antigen levels): day 2, single drug (Figure 1A)
Experimental: (§1) The reactivation of HIV-1 from latently infected cells was determined by the measurement of supernatant p24 antigen and intracellular HIV-1 RNA levels. ACH-2 cells or U1 cells (5 × 10^5 cells/mL) were placed in 96-well plates, and then the cells were incubated with different concentrations of drugs for 24 h to extract RNA and for 48 h to collect the supernatant. The increase in supernatant p24 antigen levels was measured using […] G1200 (Fujirebio, Tokyo, Japan). The total RNA was extracted using an RNeasy Mini Kit (Qiagen, Hilden, Germany), following the manufacturer’s protocols. The cDNA was synthesized using PrimeScript RT Master Mix (Takara Bio, Shiga, Japan), and quantitative real-time PCR analyses for the intracellular HIV-1 RNA were carried out with PowerUp^TM SYBR Green Master Mix (Applied Biosystems, Foster City, CA, United States). The oligonucleotide primers used were as follows: 5′-[…]-3′ (forward) and 5′-[…]-3′ (reverse) for HIV-RNA detection; 5′-[…]-3′ (forward) and 5′-[…]-3′ (reverse) for β-actin. The HIV-RNA expressions were normalized with that of β-actin, which was indicated as the relative quantity, and the increase in HIV-1 RNA levels in the presence of a drug was compared with that without a drug.
(§2) FIGURE 1 (A,B) The increase in viral production from ACH-2 cells (A) and U1 cells (B) was examined by supernatant p24 antigen levels on day 2. (C,D) Changes in the intracellular HIV-1 mRNA levels due to treatment with these drugs in ACH-2 cells (C) and U1 cells (D) after 24 h of incubation.
FIGURE 2 (A) Effect of birinapant when combined with TNF-α. The supernatant p24 levels with birinapant (1∼100 nM) in ACH-2 cell culture on day 2 are shown in white bars, and p24 values with birinapant when combined with TNF-α (10 ng/ml) are shown in black bars. (B) HIV-1 production from ACH-2 cells when reactivated by PEP005 (0.05∼50 nM) for 24 h. (C) Changes in the living cell numbers in the presence of drug(s) on days 1, 3, and 5.

Jurkat = assay: Cytotoxicity assay (Cytotoxicity LDH Assay Kit); settings: Jurkat cells, 24 h; read-out: CC50 ± SD against Jurkat
Experimental: (§3) To determine the cytotoxicity induced by LRAs and its related compounds, cells (5 × 10^5 cells/mL) were cultured in the presence or absence of LRA. After 24 h, cytotoxicity assays were performed using a Cytotoxicity LDH Assay Kit (Dojindo, Kumamoto, Japan) according to the manufacturer’s instructions. The number of living cells with the drug was measured and compared with those without the drug, and data are shown as percentage (%) of control.

ACH-2 = assay: Cytotoxicity assay (Cytotoxicity LDH Assay Kit); settings: ACH-2 cells, 24 h; read-out: CC50 ± SD against ACH-2
Experimental: as §3

OM10.1 = assay: Cytotoxicity assay (Cytotoxicity LDH Assay Kit); settings: OM10.1 cells, 24 h; read-out: CC50 ± SD against OM10.1
Experimental: as §3

HL-60 = assay: Cytotoxicity assay (Cytotoxicity LDH Assay Kit); settings: HL-60 cells, 24 h; read-out: CC50 ± SD against HL-60
Experimental: as §3

J1.1 = assay: Cytotoxicity assay (Cytotoxicity LDH Assay Kit); settings: J1.1 cells, 24 h; read-out: CC50 ± SD against J1.1
Experimental: as §3

A3.01 = assay: Cytotoxicity assay (Cytotoxicity LDH Assay Kit); settings: A3.01 cells, 24 h; read-out: CC50 ± SD against A3.01
Experimental: as §3

U1 = assay: Cytotoxicity assay (Cytotoxicity LDH Assay Kit); settings: U1 cells, 24 h; read-out: CC50 ± SD against U1
Experimental: as §3

U937 = assay: Cytotoxicity assay (Cytotoxicity LDH Assay Kit); settings: U937 cells, 24 h; read-out: CC50 ± SD against U937
Experimental: as §3

[2] = tested on: latent HIV-1-infected U1 cells; assay: HIV reactivation from latent cells: supernatant p24 antigen; settings: day 2, single drug (Figure 1B)
Experimental: as §1, §2

HIV-1 NL4-3 = assay: Antiviral assay, HIV-1 NL4-3 in MT-4 cells; settings: MT-4 cells, cultured for 12 days, single drug
Experimental: as §3, with “Antiviral assays using wild type HIV-1 (HIV-1 NL4-3) cells and MT-4 cells were conducted as previously described ([Maeda et al., 2014]; [Takamatsu et al., 2015]). To” for “To”
Supplementary file Data_Sheet_1.PDF: FIGURE S1 The combined effect of an RT inhibitor (EFdA/MK-8591) ([Nakata et al., 2007]; [Kawamoto et al., 2008]; [Maeda et al., 2014]) and PKC activator (PEP005) on the replication of HIV-1 NL4-3 in MT-4 cells. MT-4 cells were infected with HIV-1 NL4-3 in the presence or absence of drug(s), cultured for 12 days, and the supernatant p24 levels were measured. Click here for additional data file.

[3] = Cytotoxicity assay (Cytotoxicity LDH Assay Kit); settings: human
Experimental: as §3

cIAP = assay: Determination of cIAP expression (western blotting); settings: ACH-2 cells, 24 h; birinapant 50 nM, PEP005 5 nM, TNF-α 10 ng/ml
Experimental: ACH-2 cells (1 × 10^6 cells/ml) were treated with different concentrations of the drug for 24 h, and the cells were washed twice with PBS. Cells were homogenized by CelLytic M Cell Lysis Reagent (Sigma-Aldrich, St. Louis, MO, United States) containing a protease inhibitor cocktail (Nacalai Tesque, Kyoto, Japan) and were incubated at room temperature (RT) for 15 min. The cells were then centrifuged at 13,000 rpm for 15 min, and the supernatant of the whole cell lysate was collected. The bicinchoninic acid (BCA) protein assay (Thermo Scientific, Rockford, IL, United States) was used to measure the actual protein amount in the treated and untreated cells. The protein extracts were separated through sodium dodecyl sulfate polyacrylamide gel electrophoresis (SDS-PAGE) and then were blotted onto a Trans Blot Turbo polyvinylidene difluoride (PVDF) membrane (Bio-Rad, Hercules, CA, United States). Protein bands were visualized using 3,3′,5,5′-tetramethylbenzidine (TMB) solution (Wako Pure Chemical). The sources of the antibodies were as follows: c-IAP1 (D5G9), c-IAP2 (58C7), and XIAP (3B6) were purchased from Cell Signaling Technology (Danvers, MA, United States); β-actin (C4) was purchased from Santa Cruz Biotechnology.
Supplementary file Data_Sheet_5.PDF: FIGURE S5 Western blotting (WB) analysis for IAP family proteins in ACH-2 cells. Cells were exposed to birinapant (50 nM) in the presence or absence of PEP005 (5 nM), with TNF-α (10 ng/ml) co-treatment for 24 h, and cell lysates were used for WB analysis. Click here for additional data file.

[4] = A3.01 cells, read-out: CC50 ± SD against A3.01
[5] = ACH-2 cells, read-out: CC50 ± SD against ACH-2
[6] = HL-60 cells, read-out: CC50 ± SD against HL-60
[7] = J1.1 cells, read-out: CC50 ± SD against J1.1
[8] = Jurkat cells, read-out: CC50 ± SD against Jurkat
[9] = OM10.1 cells, read-out: CC50 ± SD against OM10.1
[10] = U1 cells, read-out: CC50 ± SD against U1
[11] = U937 cells, read-out: CC50 ± SD against U937

For `FC(F)(F)Oc1ccc2nc(-c3ccc(OCCOCCOc4ccc(-c5nc6ccc(OC(F)(F)F)cc6[nH]5)nc4)cn3)[nH]c2c1` [AI-10-49], the “viral production (supernatant p24 antigen levels)” value (from here on “viral production”) [1] was “failed to increase the p24 levels”, the CC50 (Jurkat) was 1.1 ± 0.07 µM and the CC50 (ACH-2) was 41 ± 10 µM. It also gave a CC50 (OM10.1) of over 100 µM, a CC50 (HL-60) of over 100 µM and a CC50 (J1.1) of over 100 µM. It also gave a CC50 (A3.01) of over 100 µM, a CC50 (U1) of over 100 µM and a CC50 (U937) of over 100 µM. The “viral production” value [2] was “failed to increase the p24 levels”.
With `C#C[C@]1(CO)O[C@@H](n2cnc3c(N)nc(F)nc32)C[C@@H]1O` [EFdA/MK-8591, 4′-ethynyl-2-fluoro-2′-deoxyadenosine] the “replication of HIV-1 NL4-3 (supernatant p24)” value (HIV-1 NL4-3) was “potently inhibited the replication”.
In the case of `CCCCOc1nc(N)c2c(n1)N(Cc1cccc(CN3CCCC3)c1)CC(=O)N2` [GS-9620], the “viral production” value [1] is reported as “failed to increase the p24 levels”, the CC50 at 24 h [3, 4] is reported as over 100 µM and the CC50 at 24 h [3, 5] is reported as over 100 µM. For the same compound, the CC50 at 24 h [3, 6] was over 100 µM, the CC50 at 24 h [3, 7] was 35 ± 1.3 µM and the CC50 at 24 h [3, 8] was 23 ± 0.3 µM. For the same compound, the CC50 at 24 h [3, 9] was over 100 µM, the CC50 at 24 h [3, 10] was over 100 µM and the CC50 at 24 h [3, 11] was over 100 µM. The “viral production” value [2] was “failed to increase the p24 levels”.
For `CCNC(=O)C[C@@H]1N=C(c2ccc(Cl)cc2)c2cc(OC)ccc2-n2c(C)nnc21` [GSK525762A], the “viral production” value [1] was “increased viral production” and the “viral production” value [2] was “increased viral production”.
In the case of `Cc1sc2c(c1C)C(c1ccc(Cl)cc1)=N[C@@H](CC(=O)OC(C)(C)C)c1nnc(C)n1-2` [JQ-1], the “viral production” value [1] is reported as “increased viral production” and the “viral production” value [2] is reported as “increased viral production”.
With `O=C(CCCCCCC(=O)Nc1ccccc1)NO` [SAHA] the “viral production” value [1] was “increased viral production”, the CC50 at 24 h [3, 4] was over 100 µM and the CC50 at 24 h [3, 5] was 9 ± 1.2 µM. The CC50 at 24 h [3, 6] was over 100 µM, the CC50 at 24 h [3, 7] was over 100 µM and the CC50 at 24 h [3, 8] was 90 ± 2 µM. The CC50 at 24 h [3, 9] was over 100 µM, the CC50 at 24 h [3, 10] was over 100 µM and the CC50 at 24 h [3, 11] was over 100 µM. The “viral production” value [2] was “increased viral production”.
In the case of Ro5-3335, the “viral production” value [1] is reported as “failed to increase the p24 levels”, the CC50 (Jurkat) is reported as over 100 µM and the CC50 (ACH-2) is reported as over 100 µM. The CC50 (OM10.1) was over 100 µM, the CC50 (HL-60) was over 100 µM and the CC50 (J1.1) was over 100 µM. For the same compound, the CC50 (A3.01) was over 100 µM, the CC50 (U1) was over 100 µM and the CC50 (U937) was over 100 µM. The “viral production” value [2] was “failed to increase the p24 levels”.
In the case of TNF-α, the “increase of supernatant HIV-1 (p24) levels compared with unstimulated cells” value ([1]; TNF-α 10 ng/ml, day 2 (Figure 2A)) is reported as over 20 fold, the “supernatant HIV-1 p24 levels” value ([1]; after 24 h, PEP005 5 nM and higher (Figure 2B)) is reported as “reactivated and increased the supernatant HIV-1 p24 levels” and the “cIAP expression (western blotting)” value (cIAP) is reported as “upregulation of cIAP-1 (and cIAP-2)”.
